Laboratory results published in publication PMC5218480 (PLoS ONE, 2017).

Test system: MV-4-11 cells
Assay: Gene expression microarray analysis (Affymetrix PrimeView) and GSEA
Assay type: cell-based, human
Set-up: RFU PODN (11730768_x_at) / Fold change /veh PODN (11730768_x_at) / RFU LINC00158 (11744669_a_at) / Fold change /veh LINC00158 (11744669_a_at) / RFU DUSP10 (11751237_a_at) / Fold change /veh DUSP10 (11751237_a_at) / RFU ID3 (11757404_x_at) / Fold change /veh ID3 (11757404_x_at) / RFU PLEKHG5 (11737974_s_at) / Fold change /veh PLEKHG5 (11737974_s_at) / RFU LRRC4B (11730491_at) / Fold change /veh LRRC4B (11730491_at) / RFU GIMAP4 (11747438_a_at) / Fold change /veh GIMAP4 (11747438_a_at) / RFU KRT8 (11758183_x_at) / Fold change /veh KRT8 (11758183_x_at) / RFU CNN1 (11734310_a_at) / Fold change /veh CNN1 (11734310_a_at) / RFU VPS37D (11726825_at) / Fold change /veh VPS37D (11726825_at) / RFU C10orf10 (11716522_x_at) / Fold change /veh C10orf10 (11716522_x_at) / RFU KIR2DL2 /// KIR2DL4 /// KIR2DL5A /// KIR2DL5B /// KIR2DS1 /// KIR2DS2 /// KIR2DS3 /// KIR2DS4 /// KIR3DL3 /// KIR3DL3 /// KIR3DS1 (11738374_at) / Fold change /veh KIR2DL2 /// KIR2DL4 /// KIR2DL5A /// KIR2DL5B /// KIR2DS1 /// KIR2DS2 /// KIR2DS3 /// KIR2DS4 /// KIR3DL3 /// KIR3DL3 /// KIR3DS1 (11738374_at) / RFU C1QL1 (11718748_at) / Fold change /veh C1QL1 (11718748_at) / RFU TMPRSS4 (11747572_a_at) / Fold change /veh TMPRSS4 (11747572_a_at) / RFU HAMP (11756126_x_at) / Fold change /veh HAMP (11756126_x_at) / RFU RNFT2 (11725882_a_at) / Fold change /veh RNFT2 (11725882_a_at) / RFU NR4A2 (11747474_a_at) / Fold change /veh NR4A2 (11747474_a_at) / RFU ABCC12 (11746883_a_at) / Fold change /veh ABCC12 (11746883_a_at) / RFU TMEM136 (11760407_x_at) / Fold change /veh TMEM136 (11760407_x_at) / RFU CLDN22 /// WWC2 (11732394_at) / Fold change /veh CLDN22 /// WWC2 (11732394_at) / RFU HLA-DPB1 (11760878_x_at) / Fold change /veh HLA-DPB1 (11760878_x_at) / RFU SPINT1 (11716480_a_at) / Fold change /veh SPINT1 (11716480_a_at) / RFU GAP43 (11754022_s_at) / Fold change /veh GAP43 (11754022_s_at) / RFU A4GNT (11735810_at) / Fold change /veh A4GNT (11735810_at) / RFU PRB3 (11715151_x_at) / Fold change /veh PRB3 (11715151_x_at) / RFU TUBB4B (11761932_at) / Fold change /veh TUBB4B (11761932_at) / RFU CAPN14 (11732068_a_at) / Fold change /veh CAPN14 (11732068_a_at) / RFU TMCC2 (11721928_a_at) / Fold change /veh TMCC2 (11721928_a_at) / RFU IRGQ (11745062_a_at) / Fold change /veh IRGQ (11745062_a_at) / RFU FAM174B (11720279_a_at) / Fold change /veh FAM174B (11720279_a_at) / RFU TMPRSS4 (11748680_a_at) / Fold change /veh TMPRSS4 (11748680_a_at) / RFU FAM212B (11763350_a_at) / Fold change /veh FAM212B (11763350_a_at) / RFU PLEKHG5 (11743358_a_at) / Fold change /veh PLEKHG5 (11743358_a_at) / RFU ZSCAN30 (11745921_a_at) / Fold change /veh ZSCAN30 (11745921_a_at) / RFU CMKLR1 (11741424_a_at) / Fold change /veh CMKLR1 (11741424_a_at) / RFU LOC101060620 /// MAPK8IP1 (11723275_at) / Fold change /veh LOC101060620 /// MAPK8IP1 (11723275_at) / RFU SPTSSB (11747773_x_at) / Fold change /veh SPTSSB (11747773_x_at) / RFU PRSS12 (11739890_at) / Fold change /veh PRSS12 (11739890_at) / RFU BIN1 (11741810_x_at) / Fold change /veh BIN1 (11741810_x_at) / RFU WNT11 (11732464_a_at) / Fold change /veh WNT11 (11732464_a_at) / RFU C10orf10 (11716521_a_at) / Fold change /veh C10orf10 (11716521_a_at) / RFU C5orf56 (11738089_at) / Fold change /veh C5orf56 (11738089_at) / RFU CYB561 (11721691_x_at) / Fold change /veh CYB561 (11721691_x_at) / RFU ANKRD19P (11752326_a_at) / Fold change /veh ANKRD19P (11752326_a_at) / RFU OR2T12 /// OR2T33 /// OR2T8 (11738714_s_at) / Fold change /veh OR2T12 /// OR2T33 /// OR2T8 (11738714_s_at) / RFU VCAN (11748164_a_at) / Fold change /veh VCAN (11748164_a_at) / RFU JSRP1 (11732532_at) / Fold change /veh JSRP1 (11732532_at) / RFU KRTAP10-11 (11738290_x_at) / Fold change /veh KRTAP10-11 (11738290_x_at) / RFU MYO3A (11730013_a_at) / Fold change /veh MYO3A (11730013_a_at) / RFU EBF3 (11725865_a_at) / Fold change /veh EBF3 (11725865_a_at) / RFU CAMK2N1 (11719241_x_at) / Fold change /veh CAMK2N1 (11719241_x_at) / RFU C5orf56 (11738088_a_at) / Fold change /veh C5orf56 (11738088_a_at) / RFU OLFML3 (11715873_a_at) / Fold change /veh OLFML3 (11715873_a_at) / RFU LOC100653217 /// NTM (11731650_a_at) / Fold change /veh LOC100653217 /// NTM (11731650_a_at) / RFU MAPK11 (11762145_a_at) / Fold change /veh MAPK11 (11762145_a_at) / RFU FIZ1 (11724087_x_at) / Fold change /veh FIZ1 (11724087_x_at) / RFU OASL (11726364_x_at) / Fold change /veh OASL (11726364_x_at) / RFU SOX15 (11748057_x_at) / Fold change /veh SOX15 (11748057_x_at) / RFU CD79A (11719716_a_at) / Fold change /veh CD79A (11719716_a_at) / RFU HIST1H1D (11736915_at) / Fold change /veh HIST1H1D (11736915_at) / RFU CASKIN2 (11723855_a_at) / Fold change /veh CASKIN2 (11723855_a_at) / RFU LOC730098 (11760151_x_at) / Fold change /veh LOC730098 (11760151_x_at) / RFU OR4N2 (11742367_at) / Fold change /veh OR4N2 (11742367_at) / RFU PRRT2 (11749266_a_at) / Fold change /veh PRRT2 (11749266_a_at) / RFU SNX32 (11753110_a_at) / Fold change /veh SNX32 (11753110_a_at) / RFU CDHR5 (11726645_a_at) / Fold change /veh CDHR5 (11726645_a_at) / RFU RCAN1 (11760418_a_at) / Fold change /veh RCAN1 (11760418_a_at) / RFU FAM167A (11723789_a_at) / Fold change /veh FAM167A (11723789_a_at) / RFU FAM26E (11764081_at) / Fold change /veh FAM26E (11764081_at) / RFU ISYNA1 (11749810_s_at) / Fold change /veh ISYNA1 (11749810_s_at) / RFU ACY1 (11761880_at) / Fold change /veh ACY1 (11761880_at) / RFU 11764098_at / Fold change /veh 11764098_at / RFU SAMD14 (11745864_x_at) / Fold change /veh SAMD14 (11745864_x_at) / RFU NPB (11741838_a_at) / Fold change /veh NPB (11741838_a_at) / RFU TMPRSS6 (11731388_a_at) / Fold change /veh TMPRSS6 (11731388_a_at) / RFU KRTAP10-2 (11738614_at) / Fold change /veh KRTAP10-2 (11738614_at) / RFU ARHGAP8 /// PRR5-ARHGAP8 (11727945_x_at) / Fold change /veh ARHGAP8 /// PRR5-ARHGAP8 (11727945_x_at) / RFU KRTAP5-7 /// NADSYN1 (11734609_at) / Fold change /veh KRTAP5-7 /// NADSYN1 (11734609_at) / RFU RASL12 (11751679_a_at) / Fold change /veh RASL12 (11751679_a_at) / RFU CDKN2B (11736163_a_at) / Fold change /veh CDKN2B (11736163_a_at) / RFU PRF1 (11729649_at) / Fold change /veh PRF1 (11729649_at) / RFU, ZNF638 /// ZNF638-IT1 / Fold change vs veh, ZNF638 /// ZNF638-IT1 / RFU, PANK3 / Fold change vs veh, PANK3 / RFU, SH3YL1 / Fold change vs veh, SH3YL1 / RFU, ZEB2 / Fold change vs veh, ZEB2 / RFU, NRIP1 / Fold change vs veh, NRIP1 / RFU, PTTG1IP / Fold change vs veh, PTTG1IP / RFU, CAPN2 / Fold change vs veh, CAPN2 / RFU, MED14 / Fold change vs veh, MED14 / RFU, SNORA58 / Fold change vs veh, SNORA58 / RFU, C1orf63 / Fold change vs veh, C1orf63 / RFU, LRRFIP1 / Fold change vs veh, LRRFIP1 / RFU, NDUFAF7 / Fold change vs veh, NDUFAF7 / RFU, SLC12A2 / Fold change vs veh, SLC12A2 / RFU, IBTK / Fold change vs veh, IBTK / RFU, ESF1 / Fold change vs veh, ESF1 / Fold change vs veh, TMEM50B / RFU, TAOK1 / Fold change vs veh, TAOK1 / RFU, ACBD3 / Fold change vs veh, ACBD3 / RFU, TMA16 / Fold change vs veh, TMA16 / RFU, RWDD3 / Fold change vs veh, RWDD3 / RFU, BCAT1 / Fold change vs veh, BCAT1 / RFU, EDEM3 / Fold change vs veh, EDEM3 / RFU, TMEM33 / Fold change vs veh, TMEM33 / RFU, WDR75 / Fold change vs veh, WDR75 / RFU, AHCTF1 / Fold change vs veh, AHCTF1 / RFU, TFRC / Fold change vs veh, TFRC / RFU, ZDHHC17 / Fold change vs veh, ZDHHC17 / RFU, NOM1 / Fold change vs veh, NOM1 / RFU, ARL8B / Fold change vs veh, ARL8B / RFU, ZBTB11 / Fold change vs veh, ZBTB11 / RFU, TAMM41 / Fold change vs veh, TAMM41 / RFU, KIAA1704 /// LOC100996395 / Fold change vs veh, KIAA1704 /// LOC100996395 / RFU, ING1 / Fold change vs veh, ING1 / RFU, TRMT61B / Fold change vs veh, TRMT61B / RFU, FUBP3 / Fold change vs veh, FUBP3 / RFU, TP53 / Fold change vs veh, TP53 / RFU, TNKS2 / Fold change vs veh, TNKS2 / RFU, ZFP14 / Fold change vs veh, ZFP14 / RFU, ACTR2 / Fold change vs veh, ACTR2 / RFU, PPP3R1 / Fold change vs veh, PPP3R1 / RFU, PIK3R1 / Fold change vs veh, PIK3R1 / RFU, HNRNPA1 / Fold change vs veh, HNRNPA1 / RFU, RNF170 / Fold change vs veh, RNF170 / RFU, ZNF28 / Fold change vs veh, ZNF28 / RFU, RNGTT / Fold change vs veh, RNGTT / RFU, OGT / Fold change vs veh, OGT / RFU, BRD1 / Fold change vs veh, BRD1 / RFU, MARS / Fold change vs veh, MARS / RFU, ZNF655 / Fold change vs veh, ZNF655 / RFU, FAHD1 / Fold change vs veh, FAHD1 / RFU, BDP1 / Fold change vs veh, BDP1 / RFU, LRRCC1 / Fold change vs veh, LRRCC1 / RFU, ARID1A / Fold change vs veh, ARID1A / RFU, ZNF146 / Fold change vs veh, ZNF146 / RFU, ZNF330 / Fold change vs veh, ZNF330 / RFU, GPN3 / Fold change vs veh, GPN3 / RFU, C9orf123 / Fold change vs veh, C9orf123 / RFU, N4BP2L2 / Fold change vs veh, N4BP2L2 / RFU, ARFIP1 / Fold change vs veh, ARFIP1 / RFU, FAM179B / Fold change vs veh, FAM179B / RFU, BCL10 / Fold change vs veh, BCL10 / RFU, UHRF1BP1L / Fold change vs veh, UHRF1BP1L / RFU, BET1 / Fold change vs veh, BET1 / RFU, CNOT2 / Fold change vs veh, CNOT2 / RFU, ZNF268 / Fold change vs veh, ZNF268 / Fold change vs veh, ZNF507 / RFU, DGCR2 / Fold change vs veh, DGCR2 / RFU, WDSUB1 / Fold change vs veh, WDSUB1 / Fold change vs veh, HSP90B1 /// MIR3652 / RFU, ADSS / Fold change vs veh, ADSS / RFU, GK / Fold change vs veh, GK / RFU, ZNF148 / Fold change vs veh, ZNF148 / RFU, TAF9 / Fold change vs veh, TAF9 / RFU, SLC1A5 / Fold change vs veh, SLC1A5 / RFU, SLMO2 / Fold change vs veh, SLMO2 / RFU, ABCC4 / Fold change vs veh, ABCC4 / RFU, LOC101060439 /// RAP1B / Fold change vs veh, LOC101060439 /// RAP1B / RFU, RFX7 / Fold change vs veh, RFX7 / RFU, GTPBP10 / Fold change vs veh, GTPBP10 / RFU, CNEP1R1 / Fold change vs veh, CNEP1R1 / RFU, BIVM-ERCC5 /// ERCC5 / Fold change vs veh, BIVM-ERCC5 /// ERCC5 / RFU, ILF3 / Fold change vs veh, ILF3 / RFU 11762660_at / Fold change /veh 11762660_at / RFU VCAN (11757783_s_at) / Fold change /veh VCAN (11757783_s_at) / RFU DDX43 (11728927_at) / Fold change /veh DDX43 (11728927_at) / RFU KRT8 (11758188_x_at) / Fold change /veh KRT8 (11758188_x_at) / RFU NKD1 (11759106_at) / Fold change /veh NKD1 (11759106_at) / RFU SRD5A1 (11742802_a_at) / Fold change /veh SRD5A1 (11742802_a_at) / RFU TPSAB1 /// TPSB2 (11721975_s_at) / Fold change /veh TPSAB1 /// TPSB2 (11721975_s_at) / RFU GSTM3 (11746129_a_at) / Fold change /veh GSTM3 (11746129_a_at) / RFU IL23R (11737362_x_at) / Fold change /veh IL23R (11737362_x_at) / RFU TMEM51 (11727254_a_at) / Fold change /veh TMEM51 (11727254_a_at) / RFU PIWIL2 (11732686_x_at) / Fold change /veh PIWIL2 (11732686_x_at) / RFU ORM1 (11744905_x_at) / Fold change /veh ORM1 (11744905_x_at) / RFU CCDC152 (11743942_at) / Fold change /veh CCDC152 (11743942_at) / RFU ECM1 (11717891_a_at) / Fold change /veh ECM1 (11717891_a_at) / RFU IL23R (11748794_a_at) / Fold change /veh IL23R (11748794_a_at) / RFU TNFAIP8L3 (11732012_x_at) / Fold change /veh TNFAIP8L3 (11732012_x_at) / RFU MBOAT4 (11741988_at) / Fold change /veh MBOAT4 (11741988_at) / RFU 11764193_at / Fold change /veh 11764193_at / RFU TMEM53 (11763286_at) / Fold change /veh TMEM53 (11763286_at) / RFU MAGEB2 (11727129_at) / Fold change /veh MAGEB2 (11727129_at) / RFU TMEM200A (11744735_a_at) / Fold change /veh TMEM200A (11744735_a_at) / RFU CCDC152 (11751479_a_at) / Fold change /veh CCDC152 (11751479_a_at) / RFU FAM211A (11726209_a_at) / Fold change /veh FAM211A (11726209_a_at) / RFU RGS16 (11746705_a_at) / Fold change /veh RGS16 (11746705_a_at) / RFU VCAN (11755009_s_at) / Fold change /veh VCAN (11755009_s_at) / RFU RHOB (11743442_s_at) / Fold change /veh RHOB (11743442_s_at) / RFU RGS16 (11720943_a_at) / Fold change /veh RGS16 (11720943_a_at) / RFU RGS16 (11720944_at) / Fold change /veh RGS16 (11720944_at) / RFU, VPS4B / Fold change vs veh, VPS4B / RFU, CREB1 / Fold change vs veh, CREB1 / RFU, DNAJC13 / Fold change vs veh, DNAJC13 / RFU, GNAQ / Fold change vs veh, GNAQ / RFU, CDK5R1 / Fold change vs veh, CDK5R1 / RFU, ZRANB3 / Fold change vs veh, ZRANB3 / RFU, CUL4A / Fold change vs veh, CUL4A / RFU, CCNY / Fold change vs veh, CCNY / RFU, UFL1 / Fold change vs veh, UFL1 / RFU, COG3 / Fold change vs veh, COG3 / RFU, DIAPH2 / Fold change vs veh, DIAPH2 / RFU, SKA2 / Fold change vs veh, SKA2 / RFU, AFF3 / Fold change vs veh, AFF3 / RFU, LMF1 / Fold change vs veh, LMF1 / RFU, IPO11 / Fold change vs veh, IPO11 / RFU, DFFB / Fold change vs veh, DFFB / RFU, FOXP1 / Fold change vs veh, FOXP1 / RFU, CARD8 / Fold change vs veh, CARD8 / RFU, STRN3 / Fold change vs veh, STRN3 / RFU, ADK / Fold change vs veh, ADK / RFU, RASSF2 / Fold change vs veh, RASSF2 / RFU, WIPF1 / Fold change vs veh, WIPF1 / RFU, LARP1B / Fold change vs veh, LARP1B / RFU, RASA1 / Fold change vs veh, RASA1 / RFU, RB1 / Fold change vs veh, RB1 / RFU, PPFIA1 / Fold change vs veh, PPFIA1 / RFU, MAT2A / Fold change vs veh, MAT2A / RFU, CCT5 / Fold change vs veh, CCT5 / RFU, WDR92 / Fold change vs veh, WDR92 / RFU, CUX1 / Fold change vs veh, CUX1 / RFU, TTC7A / Fold change vs veh, TTC7A / RFU, TMEM135 / Fold change vs veh, TMEM135 / RFU, DEPTOR / Fold change vs veh, DEPTOR / RFU, CPM / Fold change vs veh, CPM / RFU, DNAJB6 / Fold change vs veh, DNAJB6 / RFU, CACNA2D3 / Fold change vs veh, CACNA2D3 / RFU, DTX4 / Fold change vs veh, DTX4 / RFU, TFCP2 / Fold change vs veh, TFCP2 / RFU, GMCL1 /// GMCL1P1 / Fold change vs veh, GMCL1 /// GMCL1P1 / RFU, AEBP2 / Fold change vs veh, AEBP2 / RFU, SNHG1 /// SNORD22 /// SNORD25 /// SNORD26 /// SNORD27 /// SNORD28 /// SNORD29 /// SNORD31 / Fold change vs veh, SNHG1 /// SNORD22 /// SNORD25 /// SNORD26 /// SNORD27 /// SNORD28 /// SNORD29 /// SNORD31 / Fold change (Aza/veh), C12orf56 (ProbeSet 11735607_a_at) / Fold change (ACY-1035/veh), C12orf56 (ProbeSet 11735607_a_at) / Fold change (Aza/veh), FGFR1OP (ProbeSet 11751329_s_at) / Fold change (ACY-1035/veh), FGFR1OP (ProbeSet 11751329_s_at) / Fold change (Aza/veh), VPS36 (ProbeSet 11739960_a_at) / Fold change (ACY-1035/veh), VPS36 (ProbeSet 11739960_a_at) / RFU SYPL1 (11715823_x_at) / Fold change /veh SYPL1 (11715823_x_at) / RFU IGFBP7 (11715501_s_at) / Fold change /veh IGFBP7 (11715501_s_at) / RFU REEP3 (11722064_at) / Fold change /veh REEP3 (11722064_at) / RFU IGLL1 (11728026_x_at) / Fold change /veh IGLL1 (11728026_x_at): dose or concentration left out as unconfirmed
Conditions: ProbeSet 11743510_at; LIST D

Nc1ncn([C@@H]2O[C@H](CO)[C@@H](O)[C@H]2O)c(=O)n1 [azacitidine]
Fold change vs veh, UFL1: 0.83
